In the METLIN SMRT retention time set (Domingo-Almenara et al. 2019):

Assay: gradient 5% acetonitrile 3 min, to 50% in 2 min, to 85% in 15 min, held 3 min, 100 µL/min
Conditions: column: Zorbax Extend-C18 2.1 x 50 mm; eluents: water / acetonitrile, 0.1% formic acid
Summary of the method: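 In both positive and negative ionization mode, a quadrupole time-of-flight mass spectrometer coupled to HPLC analyzed pure standards run in mixtures of ~100 molecules. The Zorbax Extend-C18 column (2.1 × 50 mm, 1.8 μm) was operated at 100 μL/min with water and acetonitrile, each containing 0.1% formic acid. The dead volume was 40 μL and the dwell volume 900 μL. Retention time came from adduct peaks that were computationally picked and individually inspected by hand.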

| Structure (SMILES) | RP-LC retention time [s] |
| --- | --- |
| COc1cccc(CNS(=O)(=O)c2cc(-c3cc(C(F)(F)F)on3)sc2C)c1 | 1120 |
| O=C(NCc1ccccc1Cl)C1CCCN(c2nccnc2Sc2ccccc2)C1 (stereo not given) | 1070 |
| COc1ccc(NS(=O)(=O)c2cc(-c3[nH]ncc3C(=O)N(C)C)oc2C)cc1 | 658 |
| CCN1C(=O)c2cccnc2Sc2cc(NC(=O)c3c(F)cccc3F)ccc21 | 808 |
| Cc1ccccc1NC(=O)Cn1c(C)nc2onc(C)c2c1=O | 738 |
| O=C(Cc1c[nH]c2ncccc12)NCc1ccc(C(F)(F)F)cc1 | 677 |
| COc1ccc(Cl)cc1NC(=O)N1CCCC1c1nc(-c2ccccc2)no1 (stereo not given) | 1140 |
| COc1ccccc1NC(=O)c1cc2c(=O)oc3ccccc3c2n1C | 981 |
| O=C(Nc1nc2ccccc2n1CCN1CCOCC1)c1cccc([N+](=O)[O-])c1 | 581 |
| CCC1Oc2ccc(S(=O)(=O)N3CCC(C(=O)NCc4cccc(OC)c4)CC3)cc2NC1=O (stereo not given) | 953 |
| COC(=O)c1cc(S(=O)(=O)N2CCCC2C(=O)Nc2ccccc2C(F)(F)F)cn1C (stereo not given) | 918 |
| COc1cccc(-n2c(=O)c(C(=O)NCCc3cccs3)c(O)c3cccnc32)c1 | 1160 |
| COc1ccc(-c2noc(C3CC(=O)N(c4ccc5c(c4)OCCO5)C3)n2)cc1 (stereo not given) | 897 |
| Cc1nc2cc3c(cc2n1CC(=O)NCC1CCCO1)OCCO3 (stereo not given) | 567 |
| CCn1c(N2CCCC(C(=O)NCCCN3CCCc4ccccc43)C2)cc(=O)n(C)c1=O (stereo not given) | 847 |
| CCOC(=O)c1cc(S(=O)(=O)N2CCCC2C(=O)N(Cc2ccco2)C2CCCC2)cn1C (stereo not given) | 992 |
| COc1ccc(CCNC(=O)C2CCN(S(C)(=O)=O)c3cc(Cl)ccc3O2)cc1 (stereo not given) | 889 |
| Cc1ccc(C)c(NC(=O)N2c3ccccc3CC2c2nc(C3CC3)no2)c1 (stereo not given) | 1060 |
| COc1ccc(S(=O)(=O)C(CNC(=O)c2cccc([N+](=O)[O-])c2C)c2ccco2)cc1 (stereo not given) | 664 |
| Cc1ccc(C2NC(=O)N(CC(=O)Nc3cc(C)on3)C3=C2C(=O)OC3)cc1 (stereo not given) | 722 |
| Cn1c(N2CCN(C(=O)c3cccc(Br)c3)CC2)cc(=O)n(C)c1=O | 672 |
| COCCNC(=O)CSc1nccc2c1ccn2Cc1ccc(F)cc1 | 668 |
| CC(C)Oc1ccc(-c2noc(CN3N=NC4C(=O)N(c5ccc6c(c5)CCC6)C(=O)C43)n2)cc1 (stereo not given) | 1180 |

| Structure (SMILES) | RP-LC retention time [s] |
| --- | --- |
| Cc1cc(=O)n(CC(=O)Nc2cccc(C(F)(F)F)c2)c(N2CCOCC2)n1 | 754 |
| COc1ccc2nc(C(=O)N3CCCCC3)cc(Nc3ccc(F)c(F)c3)c2c1 | 720 |
| CN(C)C(=O)c1cc(N(C)C)nc2c(Cl)cccc12 | 745 |
| CC(C)(Cc1c[nH]c2ccccc12)NCC(O)COc1ccccc1C#N (stereo not given) | 757 |
| CCN1C(=O)COc2ccc(-c3csc(NC(C)=O)n3)cc21 | 719 |
| O=c1ccc(-c2ccc(F)cc2)nn1CCc1nc(-c2ccc(F)cc2)no1 | 712 |
| Cc1cc(OCC(=O)N2CCC[C@H]2C(=O)O)c2c3c(c(=O)oc2c1)CCCC3 | 754 |
| O=C(NCCN1CCOCC1)c1cc2n(n1)CCCN(Cc1ccc(F)cc1)C2=O | 606 |
| COc1ccc(C2(C(=O)N3CCn4c(C)nnc4C3)CC2)cc1 | 584 |
| Cc1ccc(F)c(-n2cc(C(=O)O)nn2)c1 | 684 |
| COc1ccc(S(=O)(=O)N2CCCC(C(=O)Nc3cc(Cl)ccc3OC)C2)cc1Cl (stereo not given) | 1110 |
| CC(C)c1nc(-n2cccc2)sc1C(=O)NCCc1ccc(S(N)(=O)=O)cc1 | 924 |
| CC(C(=O)NCCCN1CCOCC1)n1c(=O)c(C(F)(F)F)nc2ccccc21 (stereo not given) | 644 |
| CN(CCc1noc(COc2ccc(F)cc2)n1)C(=O)Nc1cccc(Br)c1 | 971 |
| COCCOC1CCOC2(CCN(C(=O)c3ccsc3)CC2)C1 (stereo not given) | 670 |
| O=c1n(Cc2nc(-c3ccc(OC(F)(F)F)cc3)no2)nc2ccc(-c3ccccc3)nn12 | 1070 |
| CN(C)C(=O)c1ccc2c(c1)N(CC(=O)Nc1ccc3c(c1)OCCO3)C(=O)C1CCCCN21 (stereo not given) | 750 |
| CCCC(NC(=O)CCc1ccc(OC)cc1)C(=O)Nc1nc2ccccc2[nH]1 (stereo not given) | 713 |
| Cn1c(SCC(=O)N2CCCc3ccccc32)nc2cc(-c3ccccc3)sc2c1=O | 1180 |
| O=C(NC1CC1)C1CCCN(C(=O)c2ccccc2)C1 (stereo not given) | 619 |
| CC1CCN(C(=O)c2csc(-c3ccc(N4CCCC4)nc3)n2)CC1 | 660 |
| Cc1ccc(F)c(NC(=O)c2sc(-c3cn(C)c4ncccc34)nc2C)c1 | 874 |
